Counter-ions that a name gives are not always drawn.
Assays:
[1] = tested on: Candida albicans(KCTC 1940), Aspergillus niger (ATCC 9642) and Saccharomyces cerevisiae; experiment: Relative antifungal activity by agar dilution method (vs Miconazole); assay type: cell-based;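 note: scores 5 to 7 mean a lower fungicidal concentration than Miconazole so higher is more potent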
Source text: Novel compounds represented by the above chemical formula (I), and the relative activities in accordance with the agar dilution method in Sabouraud dextrose agar media, Czapek agar media and Yeast Extract-Peptone-Dextrose agar media for Candida albicans(KCTC 1940), Aspergillus niger (ATCC 9642) and Saccharomyces cerevisiae are described respectively in following Table 1.

various kinds of Candida = experiment: MIC (Minimal Inhibitory Concentration) data; assay type: cell-based; conditions: unit assumed
[2] = antifungal activity relative to Miconazole, agar dilution
[3] = agar dilution method, fungicidal concentration relative to control drug Miconazole (=4)

CCCCCCc1c2cc(OC)c(OC)cc2cc[n+]1Cc1ccc(C(C)(C)C)cc1.[Cl-] [Compound No. 145, 1-hexyl-2-(4-t-butylphenyl)methyl-6,7-dimethoxyisoquinolinium chloride]
Relative Activity [1, 2]: 4 | melting point: 105 °C

COc1cc2c(cc1OC)C(c1ccccc1F)=[N+](Cc1c(F)cccc1F)CC2.[Cl-] [Compound No. 62, 1-(2-fluorophenyl)-2-(2,6-difluorophenyl)methyl-3,4-dihydro-6,7-dimethoxyisoquinolinium chloride]
Relative Activity [1, 3]: 6 | melting point: 79 °C

CC(C)C1=[N+](Cc2ccccc2F)CCc2cc3c(cc21)OCO3.[Cl-]
melting point: 114 °C

COc1cc2c(cc1OC)C(c1ccc(C(C)(C)C)cc1)=[N+](Cc1ccccc1Cl)CC2.[Cl-] [Compound No. 55, 1-(4-t-butylphenyl)-2-(2-chlorophenyl)methyl-3,4-dihydro-6,7-dimethoxyisoquinolinium chloride]
Relative Activity [1, 3]: 6 | melting point: 117 °C

COc1cc2cc[n+](Cc3cccc(OC)c3OCc3ccc(C(F)(F)F)cc3)c(CCc3ccc(C(C)(C)C)cc3)c2cc1OC (as salt: chloride) [Compound No. 149, 1-(2-(4-t-butylphenyl))ethyl-2-(2-(4-trifluoromethylbenzyloxy)-3-methoxyphenyl)methyl-6,7-dimethoxyisoquinolinium chloride]
melting point: 110 °C

CCCCc1ccc(C2=[N+](Cc3ccccc3F)CCc3cc4c(cc32)OCO4)cc1.[Cl-]
melting point: 101 °C

CCCCCCCC1=[N+](Cc2ccccc2F)CCc2cc3c(cc21)OCO3.[Cl-]
melting point: 94 °C

CCCCCCCC1=[N+](Cc2ccccc2F)CCc2cc(OC)c(OC)cc21.[Cl-] [Compound No. 11, 1-n-heptyl-2-(2-fluorophenyl)methyl-3,4-dihydro-6,7-dimethoxyisoquinolinium chloride]
Relative Activity [1, 3]: 4 | melting point: 112 °C

CCCc1c2cc(OC)c(OC)cc2cc[n+]1Cc1ccc(C(C)(C)C)cc1.[Cl-] [Compound No. 144, 1-propyl-2-(4-t-butylphenyl)methyl-6,7-dimethoxyisoquinolinium chloride]
Relative Activity [1, 2]: 6 | melting point: 79 °C

COc1cc2c(cc1OC)C(CCc1ccc(C(C)(C)C)cc1)=[N+](Cc1cccc(OC)c1OCc1c(F)c(F)c(C(F)(F)F)c(F)c1F)CC2 (as salt: chloride) [Compound No. 135, 1-(2-(4-t-butylphenyl))ethyl-2-(2-(2,3,5,6-tetrafluoro-4-trifluoromethylbenzyloxy)-3-methoxyphenyl)methyl-3,4-dihydro-6,7-dimethoxy isoquinolinium chloride]
melting point: 140 °C

CC(C)(C)c1ccc(C2=[N+](Cc3ccccc3F)CCc3cc4c(cc32)OCO4)cc1.[Cl-]
melting point: 148 °C

CCCCCCCCCCCCCCCC1=[N+](Cc2ccc(C(C)(C)C)cc2)CCc2cc(OC)c(OC)cc21.[Cl-] [Compound No. 128, 1-pentadecyl-2-(4-t-butylphenyl)methyl-3,4-dihydro-6,7-dimethoxy isoquinolinium chloride]
Relative Activity [1, 3]: 1 | melting point: 166 °C

COc1cc2c(cc1OC)C(CCc1ccc(C(C)(C)C)cc1)=[N+](Cc1cccc(OC)c1OCc1ccc(C(F)(F)F)cc1)CC2 [Compound No. 132, 1-(2-(4-t-butylphenyl))ethyl-2-(2-(4-trifluoromethylbenzyloxy)-3-methoxyphenyl)methyl-3,4-dihydro-6,7-dimethoxy isoquinolinium chloride]
Relative Activity [1, 3]: 1 | MIC (various kinds of Candida; C. albicans ATCC 11651): 3.12 µg/mL | MIC (various kinds of Candida; C. albicans ATCC 28838): 1.56 µg/mL | MIC (various kinds of Candida; C. albicans IFO 1385): 6.25 µg/mL | MIC (various kinds of Candida; C. albicans OY-003): 3.12 µg/mL | MIC (various kinds of Candida; C. albicans OY-019): 3.12 µg/mL | MIC (various kinds of Candida; C. albicans U.K): 1.56 µg/mL | MIC (various kinds of Candida; C. glabrata): 12.5 µg/mL | MIC (various kinds of Candida; C. glulliermondi): 3.12 µg/mL | MIC (various kinds of Candida; C. krusei (KCTC7273)): 1.56 µg/mL | MIC (various kinds of Candida; C. parapsilosis): 6.5 µg/mL

COc1cc2cc[n+](Cc3c(F)cccc3Cl)c(C)c2cc1OC.[Cl-] [Compound No. 140, 1-methyl-2-(2-chloro-6-fluorophenyl)methyl-6,7-dimethoxyisoquinolinium chloride]
Relative Activity [1, 2]: 6 | melting point: 96 °C

COc1cc2c(cc1OC)C(CCc1ccc(C(C)(C)C)cc1)=[N+](Cc1ccccc1F)CC2 (as salt: chloride) [Compound No. 124, 1-(2-(4-t-butylphenyl))ethyl-2-(2-fluorophenyl)methyl-3,4-dihydro-6,7-dimethoxyisoquinolinium chloride]
melting point: 103 °C

CCCCCCCCCCCCCCCc1c2cc(OC)c(OC)cc2cc[n+]1Cc1ccc(C(C)(C)C)cc1.[Cl-] [Compound No. 147, 1-pentadecyl-2-(4-t-butylphenyl)methyl-6,7-dimethoxyisoquinolinium chloride]
Relative Activity [1, 2]: 1 | melting point: 120 °C

COc1cc2c(cc1OC)C(CCc1ccc(C(C)(C)C)cc1)=[N+](Cc1cccc(OC)c1OCc1ccc(C(F)(F)F)cc1)CC2 (as salt: chloride) [Compound No. 132, 1-(2-(4-t-butylphenyl))ethyl-2-(2-(4-trifluoromethylbenzyloxy)-3-methoxyphenyl)methyl-3,4-dihydro-6,7-dimethoxy isoquinolinium chloride]
melting point: 60 °C

COc1cc2cc[n+](Cc3cccc(OC)c3OCc3ccc(C(F)(F)F)cc3)c(CCc3ccc(C(C)(C)C)cc3)c2cc1OC [Compound No. 149, 1-(2-(4-t-butylphenyl))ethyl-2-(2-(4-trifluoromethylbenzyloxy)-3-methoxyphenyl)methyl-6,7-dimethoxyisoquinolinium chloride]
Relative Activity [1, 2]: 1 | MIC (various kinds of Candida; C. albicans ATCC 11651): 0.78 µg/mL | MIC (various kinds of Candida; C. albicans ATCC 28838): 1.56 µg/mL | MIC (various kinds of Candida; C. albicans IFO 1385): 3.12 µg/mL | MIC (various kinds of Candida; C. albicans OY-003): 0.78 µg/mL | MIC (various kinds of Candida; C. albicans OY-019): 1.56 µg/mL | MIC (various kinds of Candida; C. albicans U.K): 0.78 µg/mL | MIC (various kinds of Candida; C. albicnas ATCC 10231): 0.78 µg/mL | MIC (various kinds of Candida; C. glabrata): 6.25 µg/mL | MIC (various kinds of Candida; C. glulliermondi): 1.56 µg/mL | MIC (various kinds of Candida; C. krusei (KCTC7273)): 1.56 µg/mL | MIC (various kinds of Candida; C. parapsilosis): 6.25 µg/mL

COc1cc2c(cc1OC)C(CCc1ccc(C(C)(C)C)cc1)=[N+](Cc1cccc(OC)c1OCc1c(F)cccc1Cl)CC2 (as salt: chloride) [Compound No. 133, 1-(2-(4-t-butylphenyl))ethyl-2-(2-(2-chloro-6-fluorobenzyloxy)-3-methoxyphenyl)methyl-3,4-dihydro-6,7-dimethoxyisoquinolinium chloride]
melting point: 63 °C

COc1ccc(C[N+]2=C(CCc3ccc(C(C)(C)C)cc3)c3cc(OC)c(OC)cc3CC2)cc1OC (as salt: chloride) [Compound No. 125, 1-(2-(4-t-butylphenyl))ethyl-2-(3,4-dimethoxyphenyl)methyl-3,4-dihydro-6,7-dimethoxyisoquinolinium chloride]
melting point: 100 °C

COc1cc2c(cc1OC)C(CCc1ccc(C(C)(C)C)cc1)=[N+](Cc1cccc(OC)c1OCc1c(F)c(F)c(C(F)(F)F)c(F)c1F)CC2 [Compound No. 135, 1-(2-(4-t-butylphenyl))ethyl-2-(2-(2,3,5,6-tetrafluoro-4-trifluoromethylbenzyloxy)-3-methoxyphenyl)methyl-3,4-dihydro-6,7-dimethoxy isoquinolinium chloride]
Relative Activity [1, 3]: 2 | MIC (various kinds of Candida; C. albicans ATCC 11651): 6.25 µg/mL | MIC (various kinds of Candida; C. albicans ATCC 28838): 3.12 µg/mL | MIC (various kinds of Candida; C. albicans IFO 1385): 6.25 µg/mL | MIC (various kinds of Candida; C. albicans OY-003): 3.12 µg/mL | MIC (various kinds of Candida; C. albicans OY-019): 6.25 µg/mL | MIC (various kinds of Candida; C. albicans U.K): 6.25 µg/mL | MIC (various kinds of Candida; C. glabrata): 12.5 µg/mL | MIC (various kinds of Candida; C. glulliermondi): 3.12 µg/mL | MIC (various kinds of Candida; C. krusei (KCTC7273)): 1.56 µg/mL | MIC (various kinds of Candida; C. parapsilosis): 12.5 µg/mL
